PMC3445454, “Broad and Cross-Clade CD4^+ T-Cell Responses Elicited by a DNA Vaccine Encoding Highly Conserved and Promiscuous HIV-1 M-Group Consensus Peptides” (PLoS ONE, 2012)
Read-outs that look alike come from different tables or passages of the source. Ends that are not written are not given here.

Tests used:
Assay in all cases: biochemical
HLA-DR DRB1*01:01 = HLA-DR DRB1*01:01 (Homo sapiens, UniProt P01903+P01911, A100R/D57E/F55L/F60I/F76Y/I96L/L162R/M171V/P40L/Q125E/R42F/V115G/Y59C); assay type: binding
[1] = target: HLA-DP DPA1*02:01/DPB1*01:01 (Homo sapiens, UniProt P04440+P20036, F191V/F38Y/F64Y/G113D/G114E/K142R/L158P/L37V/M105V/M116V/M62Q/P115A/Q81R/R125K/R223Q/T114A/T199I/T259P)
HLA-DR DRB1*15:01 = HLA-DR DRB1*15:01 (Homo sapiens, UniProt P01903+P01911); assay type: binding
[2] = target: T1, HLA-DP DPA1*01:03/DPB1*04:01 (Homo sapiens, UniProt P04440+P20036); assay type: binding
T1 sequence (P20036 29-260): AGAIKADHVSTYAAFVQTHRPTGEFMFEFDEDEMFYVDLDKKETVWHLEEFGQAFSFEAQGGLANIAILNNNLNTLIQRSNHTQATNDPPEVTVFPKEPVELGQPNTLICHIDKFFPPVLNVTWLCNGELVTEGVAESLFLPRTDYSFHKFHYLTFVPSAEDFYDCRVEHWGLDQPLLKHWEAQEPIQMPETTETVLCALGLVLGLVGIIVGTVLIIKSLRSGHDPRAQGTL
T1 sequence (P04440 30-258): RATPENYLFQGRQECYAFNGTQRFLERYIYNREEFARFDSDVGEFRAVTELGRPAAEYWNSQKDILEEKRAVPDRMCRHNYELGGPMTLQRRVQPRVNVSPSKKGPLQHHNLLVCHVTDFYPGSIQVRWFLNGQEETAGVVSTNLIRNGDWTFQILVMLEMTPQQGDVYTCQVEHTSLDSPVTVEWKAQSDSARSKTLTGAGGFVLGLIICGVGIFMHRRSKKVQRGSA

HLA-DR DRB1*13:02 = HLA-DR DRB1*13:02 (Homo sapiens, UniProt P01903+P01911, A100E/A169T/K41T/L162R/M171V/P40S/Q125H/Q178H/Q39Y/Q99D/R42S/S66N/T262R/V115G/W38E/Y61H); assay type: binding
[3] = target: T2, HLA-DP DPA1*01:03/DPB1*03:01 (Homo sapiens, UniProt P04440+P20036, A65V/A84D/A85E/E86D/F38Y/G113D/G114E/G40L/I94L/L37V/M105V/M116V/P115A/R125K/T199I); assay type: binding
T2 sequence (P20036 29-260): T1 sequence (P20036 29-260)
T2 sequence (P04440 30-258 L37V/F38Y/G40L/A65V/A84D/A85E/E86D/I94L/M105V/G113D/G114E/P115A/M116V/R125K/T199I): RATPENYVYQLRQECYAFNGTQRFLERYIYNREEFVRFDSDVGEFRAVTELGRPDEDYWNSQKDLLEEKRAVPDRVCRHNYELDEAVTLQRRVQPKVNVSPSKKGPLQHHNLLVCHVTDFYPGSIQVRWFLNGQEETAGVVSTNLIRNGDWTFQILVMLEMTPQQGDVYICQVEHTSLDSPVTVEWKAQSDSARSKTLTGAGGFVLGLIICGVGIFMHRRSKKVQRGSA

[4] = target: HLA-DP DPA1*03:01/DPB1*04:02 (Homo sapiens, UniProt P04440+P20036, A42M/A65V/A84D/A85E/L207M/L97S)
HLA-DR DRB4*01:01 = HLA-DR DRB4*01:01 (Homo sapiens, UniProt P01903+P13762, G164S); assay type: binding; conditions: read-out: Binding capacity/IC50 (nM) DRB4*01:01
HLA-DR DRB1*03:01 = HLA-DR DRB1*03:01 (Homo sapiens, UniProt P01903+P01911, A100K/A102G/A103R/A169T/F55Y/I96L/K41T/L162R/M171V/P40S/Q125H/Q178H/Q39Y/R42S/S66N/T106N/T262R/W38E/Y61H); assay type: binding
HLA-DR DRB1*04:01 = HLA-DR DRB1*04:01 (Homo sapiens, UniProt P01903+P01911, A100K/A169T/F76Y/I96L/K127E/L162R/M171V/N62H/P40V/Q125Y/R42H/S133A/S149N/S66Y/V115G/V209L/W38E); assay type: binding
HLA-DR DRB1*09:01 = HLA-DR DRB1*09:01 (Homo sapiens, UniProt P01903+P01911, A100R/A103E/D57H/D86V/F55Y/F60I/F76Y/I96F/K127E/L162R/M171V/P40D/Q125H/Q99R/R33Q/R42F/S133A/S66N/T210M/V115G/W38K/Y107V/Y59G/Y89S); assay type: binding
HLA-DR DRB1*07:01 = HLA-DR DRB1*07:01 (Homo sapiens, UniProt P01903+P01911, A100R/A102G/A103Q/D57E/D86V/E43K/F76Y/K127E/L162R/M171V/P40G/Q125H/Q99D/R33Q/R42Y/R54Q/S133A/S66F/T210M/V115G/Y107V/Y59L/Y89S); assay type: binding
HLA-DR DRB1*08:02 = HLA-DR DRB1*08:02 (Homo sapiens, UniProt P01903+P01911, A100R/A103L/A169T/F76Y/H45Y/I96F/K41T/L162R/M171V/P40S/Q125H/Q178H/Q39Y/Q99D/R218S/R42G/S66Y/V115G/W38E); assay type: binding
HLA-DR DRB1*10:01 = HLA-DR DRB1*10:01 (Homo sapiens, UniProt P01903+P01911, A100R/A169T/D57E/F55L/F60V/F69Y/F76Y/I96L/L162R/M171V/P40V/Q260P/Q39E/Q99R/R195Q/R42F/S149N/S66Y/T210M/V115G/V67A/W38E/Y59R/Y61H); assay type: binding
[5] = read-out: Binding capacity/IC50 (nM) DRB1*15:01
[6] = read-out: Binding capacity/IC50 (nM) DRB1*01:01
[7] = read-out: Binding capacity/IC50 (nM) DPA1*01:03 DPB1*04:01
[8] = read-out: Binding capacity/IC50 (nM) DRB1*13:02
[9] = read-out: Binding capacity/IC50 (nM) DRB1*03:01
[10] = read-out: Binding capacity/IC50 (nM) DRB1*04:01
[11] = read-out: Binding capacity/IC50 (nM) DRB1*09:01
[12] = read-out: Binding capacity/IC50 (nM) DRB1*07:01
[13] = read-out: Binding capacity/IC50 (nM) DRB1*08:02
[14] = read-out: Binding capacity/IC50 (nM) DRB1*10:01
[15] = read-out: Binding capacity/IC50 (nM) DPA1*01:03 DPB1*03:01

Chain of HLA-DP DPA1*02:01/DPB1*01:01 (P20036 29-260 A42M/M62Q/Q81R/T114A/K142R/L158P/F191V/T259P, other chains not shown): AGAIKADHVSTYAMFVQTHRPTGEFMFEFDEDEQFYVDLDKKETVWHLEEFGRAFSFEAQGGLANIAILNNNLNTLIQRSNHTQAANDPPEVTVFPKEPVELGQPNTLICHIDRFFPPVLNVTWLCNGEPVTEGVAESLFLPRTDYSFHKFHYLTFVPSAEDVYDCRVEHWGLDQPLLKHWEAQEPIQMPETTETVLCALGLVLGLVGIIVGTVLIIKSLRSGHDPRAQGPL

| Molecule | IC50 (HLA-DR DRB1*01:01) [nM] | IC50 [1] [nM] | IC50 (HLA-DR DRB1*15:01; [5]) [nM] | IC50 [2] [nM] | IC50 (HLA-DR DRB1*13:02) [nM] | IC50 [4] [nM] | IC50 (HLA-DR DRB4*01:01) [nM] | IC50 (HLA-DR DRB1*03:01) [nM] | IC50 (HLA-DR DRB1*04:01) [nM] | IC50 (HLA-DR DRB1*09:01) [nM] | IC50 (HLA-DR DRB1*07:01) [nM] | IC50 (HLA-DR DRB1*08:02) [nM] | IC50 (HLA-DR DRB1*10:01) [nM] | IC50 (HLA-DR DRB1*01:01; [6]) [nM] | IC50 [2, 7] [nM] | IC50 (HLA-DR DRB1*13:02; [8]) [nM] | IC50 (HLA-DR DRB1*03:01; [9]) [nM] | IC50 (HLA-DR DRB1*04:01; [10]) [nM] | IC50 (HLA-DR DRB1*09:01; [11]) [nM] | IC50 [3, 15] [nM] | other results |
| --- | --- | --- | --- | --- | --- | --- | --- | --- | --- | --- | --- | --- | --- | --- | --- | --- | --- | --- | --- | --- | --- |
| CSCC[C@H](NC(=O)[C@H](CCCCN)NC(=O)[C@H](C)NC(=O)[C@H](Cc1ccc(O)cc1)NC(=O)[C@H](CCCCN)NC(=O)CNC(=O)[C@@H](NC(=O)[C@H](CCCCN)NC(=O)[C@H](CC(C)C)NC(=O)[C@H](CC(N)=O)NC(=O)[C@H](CCCCN)NC(=O)[C@H](Cc1ccccc1)NC(=O)[C@@H]1CCCN1C(=O)[C@H](CCC(=O)O)NC(=O)[C@@H](N)CCC(N)=O)[C@@H](C)O)C(N)=O [RT(343-357)] | 81 | 300 | 47 | 14 | 25000 | 4210 | 2920 | 23300 | 591 | 335 | 6210 | 947 | 19 |  |  |  |  |  |  |  | IC50 [3]: 6510 nM |
| SEELRSLYNTVATLYCVHQ-NH2 [p17(72-90)] |  | 860 | 143 |  |  | 83 | 1100 |  |  |  |  |  |  | 20 | 240 | 1050 | 652 | 279 | 217 |  | IC50 [3]: 1740 nM; IC50 (HLA-DR DRB1*07:01; [12]): 661 nM; IC50 (HLA-DR DRB1*08:02; [13]): 73 nM; IC50 (HLA-DR DRB1*10:01; [14]): 39 nM |
| CC[C@H](C)[C@H](NC(=O)[C@@H](NC(=O)[C@H](CCCCN)NC(=O)[C@@H](NC(=O)[C@@H]1CCCN1C(=O)[C@H](Cc1c[nH]c2ccccc12)NC(=O)[C@H](CCCNC(=N)N)NC(=O)CNC(=O)[C@H](C)NC(=O)[C@H](CC(C)C)NC(=O)[C@H](CCCCN)NC(=O)[C@H](CC(C)C)NC(=O)[C@@H](NC(=O)[C@H](Cc1ccccc1)NC(=O)[C@H](Cc1ccc(O)cc1)NC(=O)[C@H](C)NC(=O)[C@@H](NC(=O)[C@@H](N)CCC(=O)O)[C@@H](C)O)[C@@H](C)CC)C(C)C)C(C)C)C(N)=O [integrase(96-113)] |  | 792 | 284 |  |  | 141 | 3080 |  |  |  |  |  |  | 4.3 | 232 | 4410 | 224 | 1770 | 390 | 1020 | IC50 (HLA-DR DRB1*07:01; [12]): 1380 nM; IC50 (HLA-DR DRB1*08:02; [13]): 365 nM; IC50 (HLA-DR DRB1*10:01; [14]): 13 nM |
| VVIQDNSDIKVVPRRKAKII-NH2 [integrase(249-268)] | 110 | 5730 |  | 9120 | 5420 | 3670 | 847 | 90 | 2870 | 7040 | 5710 | 89 | 913 |  |  |  |  |  |  | 350 | IC50 (HLA-DR DRB1*15:01): 139 nM |
| CC[C@H](C)[C@H](NC(=O)[C@H](CCCCN)NC(=O)[C@@H](NC(=O)[C@@H](NC(=O)[C@@H](N)CCC(N)=O)[C@@H](C)CC)[C@@H](C)O)C(=O)N[C@@H](CCC(N)=O)C(=O)N[C@@H](CC(N)=O)C(=O)N[C@@H](Cc1ccccc1)C(=O)N[C@@H](CCCNC(=N)N)C(=O)N[C@H](C(=O)N[C@@H](Cc1ccc(O)cc1)C(=O)N[C@@H](Cc1ccc(O)cc1)C(=O)N[C@@H](CCCNC(=N)N)C(=O)N[C@@H](CC(=O)O)C(=O)N[C@@H](CO)C(=O)N[C@@H](CCCNC(=N)N)C(=O)N[C@@H](CC(=O)O)C(=O)N1CCC[C@H]1C(=O)N[C@H](C(=O)N[C@@H](Cc1c[nH]c2ccccc12)C(N)=O)[C@@H](C)CC)C(C)C [integrase(216-235)] |  | 400 |  | 1070 |  | 89 | 2080 |  |  |  |  |  |  | 0.7 |  | 1930 | 11 | 203 | 542 | 83 | IC50 (HLA-DR DRB1*15:01): 5.3 nM; IC50 (HLA-DR DRB1*07:01; [12]): 63 nM; IC50 (HLA-DR DRB1*08:02; [13]): 8.8 nM; IC50 (HLA-DR DRB1*10:01; [14]): 45 nM |
| CC(C)C[C@H](NC(=O)[C@H](CCCCN)NC(=O)[C@@H](NC(=O)[C@H](CC(C)C)NC(=O)[C@@H]1CCCN1C(=O)[C@@H]1CCCN1C(=O)[C@@H](NC(=O)[C@H](CC(N)=O)NC(=O)[C@@H](NC(=O)[C@H](Cc1ccccc1)NC(=O)[C@H](CCC(=O)O)NC(=O)[C@H](Cc1c[nH]c2ccccc12)NC(=O)[C@@H](N)CCC(=O)O)C(C)C)[C@@H](C)O)C(C)C)C(=O)N[C@@H](Cc1c[nH]c2ccccc12)C(=O)N[C@@H](Cc1ccc(O)cc1)C(N)=O [RT(413-427)] | 26 | 101 | 329 |  | 2220 | 7 | 1420 | 469 | 42 | 57 | 39 | 58 | 12 |  | 846 |  |  |  |  | 5710 |  |
